For data set [1], the system named is ribonuclease A. Nature of the data set: Enzymatic activity of ribonuclease A after treatment with methylglyoxal and inhibitors (methylene blue RNA staining). Type of data set: biochemical. The settings on record: ribonuclease A treated with methylglyoxal (MG) + inhibitor in equimolar quantity, 37° C.; control RNase 100, RNase + methylglyoxal 10.11%. Here is the method:
(§1) Ribonuclease A and lysozyme (10 mg/ml) are incubated in the presence of methylglyoxal (10 mM) or in the presence of methylglyoxal and one of the inhibitors according to the present invention in an equimolar quantity at 37° C. After 48 hours of incubation, the proteins are analyzed by polyacrylamide gel electrophoresis (8%-16% SDS PAGE gel).
The enzymatic activity of ribonuclease A after treatment with methylglyoxal and the various inhibitors according to the present invention is measured using the methylene blue RNA staining technique of Greiner-Stöffele et al. (Anal. Biochem. (1996) 240, 24).

Data set [2] relates to EA.hy 926 cell line. Nature of the data set: Growth of EA.hy 926 endothelial cells with MG scavengers and/or methylglyoxal (MTT). Type of data set: cell-based, human. The settings on record: for viability at 1000 µM: Homo sapiens, EA.hy 926, scavenger 1 mM + methylglyoxal 600 μM, relative to untreated control cells, MG alone 24, read-out: Cells + MG scavengers + Methylglyoxal (B); for viability at 1000 µM / Cells + MG scavengers (A): 48 hours, mean of 3 experiments; for Difference (B) − (A): Table 2, cells with scavenger + MG minus cells with scavenger alone; for Cells + MG scavengers (A): scavenger 1 mM, no methylglyoxal, number of cells relative to untreated control cells; for effect against suppression of cell growth by MG: scavenger + methylglyoxal. Here is the method: The cells used for the test are from the EA.hy 926 cell line, which are endothelial cells obtained by the hybridization of human umbilical vein endothelial cells (HUVECs) with lung cancer cells (A549). The EA.hy 926 endothelial cells are incubated in Dulbecco's modified Eagle's Medium (DMEM) enriched with 10% fetal calf serum. The cells are incubated in 12-well plates. Each well initially contains 100,000 cells. Cell growth is achieved by incubating the cells in 2 ml of culture medium after adding or not adding the various potential inhibitors (1 mM) and/or methylglyoxal (600 μM) for 48 hours at 37° C. in a moist atmosphere with 5% CO2.
The number of cells is evaluated in the following way:
The cells are stained using the (4,5-dimethylthiazol-2-yl)-2,5-diphenyltetrazolium bromide (MTT) assay. MTT penetrates in the cell where it is converted into formazan. The quantity of formazan formed is proportional to the number of living cells.
The results are expressed as a relative percentage of the number of cells after treatment compared to the number of control cells without treatment [100*OD (treated cells)/OD (control cells)]. Detection is carried out by UV/visible spectrophotometry at 570 nm.
Principle: MTT (yellow) penetrates the cell and is converted into an insoluble blue compound, formazan, by cleavage of its tetrazolium rings by the mitochondrial dehydrogenase enzymes of living cells. Formazan is solubilized by isopropanol. The number of cells is proportional to the quantity of formazan formed and its absorbance.

The subject of data set [3] is ribonuclease A. Briefly: SDS PAGE electrophoresis of ribonuclease A incubated with methylglyoxal and inhibitor. Type of data set: biochemical. Here is the method:
as §1
The AGE inhibitors according to the present invention, namely L-DAPA-L-Leu (example 1) and L-DAPA-L-Ile (example 18), or AG (10 mM) are incubated with MG and ribonuclease A for […] at 37° C.

For data set [4] the following is noted: Battah et al. 2002; cited from earlier work.
The test system of data set [5] is seven strains of Salmonella (six mixed strains, strain TA98). Nature of the data set: Ames test with and without human liver S9 fractions. It counts as cell-based. Further details: key to Six mixed strains / Strain TA98: −: non-mutagenic; +: mutagenic. The following applies: for Six mixed strains / Strain TA98: mixture with methylglyoxal, 10/1/0.1 μM. Here is the method: An Ames test was performed with L-DAPA-L-Leu (example 1) and L-DAPA-L-Val (example 23) alone and in combination with methylglyoxal on human liver S9 fractions and on seven strains of Salmonella.
The concentrations used in the Ames test were as follows: • L-DAPA-L-Leu alone or L-DAPA-L-Val alone: 10 μM, 1 μM and 0.1 μM. • L-DAPA-L-Leu/methylglyoxal mixture or L-DAPA-L-Val/methylglyoxal mixture: 10 μM, 1 μM and 0.1 μM. • Methylglyoxal: 10 μM.

For data set [6], the system named is lysozyme. Briefly: SDS PAGE electrophoresis of lysozyme incubated with methylglyoxal and inhibitor. It counts as biochemical. The following applies: lysozyme 10 mg/ml, methylglyoxal 10 mM, inhibitor equimolar, 37° C., 48 hours. Here is the method: as §1
For data set [7], the system named is Human insulin. Briefly: Modification of insulin by methylglyoxal (HPLC). Type of data set: biochemical. The following applies: insulin 0.034 mM, methylglyoxal 3.4 mM, scavenger 4.08 mM, pH 7.45, 37° C. Here is the method: FIG. 1 presents the comparative effects of dicarbonyl scavengers in the form of dihydrochloride according to the present invention and the comparison with DAPA on the modification of insulin (Ins) by methylglyoxal (MG). The percentage of insulin is indicated following incubation with methylglyoxal in the presence or absence of dicarbonyl scavengers. Insulin (0.034 mM) is incubated in vitro in a 10 mM phosphate buffer, pH 7.45 (containing 0.1 M NaCl) with methylglyoxal (3.4 mM) in the presence of dicarbonyl scavengers (4.08 mM) for 21 hours at 37° C. Insulin concentration is measured by HPLC (same conditions as in FIG. 3).
FIGS. 3 to 8 present the results obtained by HPLC for two compounds according to the present invention, L-DAPA-L-Leu (example 1) and L-DAPA-L-Val (example 23), on insulin modifications induced by methylglyoxal. It can be observed that these modifications are prevented. The HPLC conditions are as follows: C-18, Symmetry 300 (4.6×250 mm) column, injection volume 100 μl of reaction mixture; flow 1 ml/min; temperature 40° C.; solvent A: H2O+0.1% TFA; solvent B: 60/40 CH3CN/H2O+0.1% TFA; linear gradient of 50% B to 55% B in 15 minutes; detection: UV at 215 nm: PDA (chromatograms extracted at 220 nm).
Human insulin (Ins) is incubated with methylglyoxal (MG) under physiological conditions. After 24 hours, the insulin is completely modified, as illustrated in FIG. 1 (Ins+MG).
On the other hand, insulin is incubated with methylglyoxal in the presence of an equimolar quantity of the AGE inhibitors according to the present invention under physiological conditions.

In data set [8] the test system is somatostatin-14. Nature of the data set: Somatostatin-14 modifications induced by methylglyoxal (HPLC). Type of data set: biochemical. The following applies: somatostatin-14 0.03 mm, methylglyoxal 3.6 mM, compound 4.3 mM, 24 hours at 37° C. Here is the method: FIGS. 9 and 10 present the results obtained by HPLC for two compounds according to the present invention, L-DAPA-L-Leu (example 1) and L-DAPA-L-Val (example 23), on somatostatin-14 modifications induced by methylglyoxal. HPLC conditions are as follows: C-18, Symmetry 300 (4.6×250 mm) column, injection volume 100 μl of reaction mixture; flow 1 ml/min; solvent A: H2O+0.1% TFA; solvent B: 80/20 CH3CN/H2O+0.1% TFA; linear gradient: from 20% B to 60% B in 15 minutes and isocratic from 60% B for 10 minutes; ambient temperature; detection: PDA (chromatograms extracted at 215 nm).
In these figures, (a) represents the results of somatostatin-14 alone; (b) represents the results of somatostatin-14+methylglyoxal; (c) represents the results of somatostatin-14+methylglyoxal+L-DAPA-L-Val (example 23) and (d) represents the results of somatostatin-14+methylglyoxal+L-DAPA-L-Leu (example 1).

The test system of data set [9] is RNase A. Briefly: RNase A modifications induced by methylglyoxal (HPLC). Type of data set: biochemical. The following applies: RNase A 0.08 mM, methylglyoxal 32 mM, compound 38 mM, 21 hours at 37° C. Here is the method: FIGS. 11 to 13 present the results obtained by HPLC for three compounds according to the present invention, L-DAPA-L-Ile (example 18), L-DAPA-L-Val (example 23) and L-DAPA-L-Leu (example 1), on RNase A modifications induced by methylglyoxal. HPLC conditions are as follows: C-18, Symmetry 300 (4.6×250 mm) column, injection volume 100 μl of reaction mixture diluted to 1/10; flow 1 ml/min; temperature 40° C.; solvent A: H2O+0.1% TFA; solvent B: 60/40 CH3CN/H2O+0.1% TFA; linear gradient of 20% B to 80% B in 20 minutes; detection: UV at 215 nm: PDA (chromatograms extracted at 215 nm).

Data set [10] in a line: Mutagenicity of DAPA (statement, no method given). The settings on record: no test described.

Non-standard residues stand in square brackets, D forms with d. Residues, ends and D or L forms follow the SMILES beside them. Dap = NC[C@H](N)C(=O)O

On to `N=C(N)NN` [Aminoguanidine, aminoguanidine, reference compound], for which the “Enzymatic activity (%)” value in data set [1] was 70.52%. Moreover, in data set [2], the viability at 1000 µM came out at 92%, the “Difference (B) − (A)” value is −5, the “Cells + MG scavengers (A)” value was 97% and the “effect against suppression of cell growth by MG” value is recorded as “suppresses this process in a spectacular manner”. Further, the “protecting effect against structural modifications of ribonuclease A induced by MG, compared with the inhibitors of the invention” value in data set [3] (10 mM, 40 hours at 37° C.) is recorded as “much less effective”. In data set [4], the “better scavenger of methylglyoxal compared with metformin (factor)” value is given as 450.
`CC(C)[C@H](NC(=O)[C@@H](N)CN)C(=O)O` [example 23, L-DAPA-L-Val.2HCl] (H-[Dap]-Val-OH): the “Enzymatic activity (%)” value in data set [1] came out at 90.77%. In addition, in data set [2], the “cell survival when incubated with MG” value is on record as 93%, the viability at 1000 µM was 93%, the “Difference (B) − (A)” value was −1 and the “Cells + MG scavengers (A)” value is listed as 94%. For the same compound, the “effect against suppression of cell growth by MG” value in [2] was “same trend”. The “difference between number of cells growing with compound and with MG and compound” value in data set [2] (values in brackets) is listed as −3. Also, in data set [5] (Human S9: No), the Six mixed strains entry was “−” and the “Strain TA98” value is listed as “−”. Also, in [5] (Human S9: Yes (metabolites)), the Six mixed strains entry is recorded as “−” and the “Strain TA98” value was “−”. Also, in data set [5] (alone or in combination with methylglyoxal, TA98, mixed strains, human liver S9 fractions), the “mutagenicity” value is recorded as “neither substance (L-DAPA-L-Leu or L-DAPA-L-Val) was mutagenic”. Also, the “protection from structural modifications (dimer form) caused by methylglyoxal” value in data set [3] (ribonuclease A 10 mg/ml, methylglyoxal 10 mM, inhibitor equimolar, 37° C., 48 hours) is listed as “provides protection”. The “protection from structural modifications (dimer form) caused by methylglyoxal” value in data set [6] is “provides protection”. Besides, in [7], the “modification of insulin by methylglyoxal” value is “prevented”. Also, the “somatostatin-14 modifications induced by methylglyoxal” value in [8] is on record as “prevent the modifications induced by methylglyoxal”. In addition, the “RNase A modifications induced by methylglyoxal” value in data set [9] is recorded as “prevent the modifications to RNase A”.
Take `NCC(N)C(=O)O` [D-DAPA, 2,3-diaminopropionic acid, reference compound]: the “Enzymatic activity (%)” value in data set [1] was 20.32%. For the same compound, in [2], the “cell survival when incubated with MG” value came to 68%, the viability at 1000 µM is 68%, the “Difference (B) − (A)” value was −15 and the “Cells + MG scavengers (A)” value turned out to be 83%. The “toxicity with respect to EA cells” value in [2] (compound alone, 1 mM) is on record as “cytotoxicity is higher”. For the same compound, in data set [7], the “modification of insulin by methylglyoxal” value is given as “prevents the modification of insulin by MG”. Further, the “mutagenicity” value in data set [10] is listed as “appears to be mutagenic”.
